Where two headings read alike, the source gives them in different places.
Assays:
Format in all cases: biochemical, mung bean
[1] = target: recombinant GlcNAc-α1,3-fucosyl transferase (Vigna radiata, UniProt Q9ST51); experiment: Assay for GlcNAc-α1,3-fucosyl transferase activity (GnGn peptide and GDP-L-[U-14C]-fucose); conditions: for Rel. Activity: acceptor substrate, standard test conditions; for Km: acceptor or donor substrate, unit inferred, read-out: apparent Km-values
[2] = test system: GlcNAc-α1,3-fucosyl transferase activity; experiment: Enzyme activity of insect cells transfected with the α1,3-fucosyl transferase gene versus negative control
Description: The encoding region of the assumed GlcNAc-α1,3-fucosyl transferase including cytoplasmatic and transmembrane region was amplified with the forward primer 5′-[…]-3′ (SEQ ID NO: 16) and reverse primer 5′-[…]-3′ (SEQ ID NO: 17) by means of the Expand High Fidelity PCR System of Boehringer Mannheim. The PCR product was double-digested with PstI and BamHI and subcloned in alkaline phosphatase-treated baculovirus transfer vector pVL1393 which previously had been digested with PstI and BamHI. To ensure a homologous recombination, the transfer vector was co-transfected with Baculo Gold viral DNA (PharMingen, Sand Diego, Calif.) in Sf9 insect cells in IPL-41 Medium with lipofectin. After an incubation of 5 days at 27° C., various volumes of the supernatant with the recombinant virus were used for infecting the Sf21 insect cells. After an incubation of 4 days at 27° C. in IPL-41 Medium with 5% FCS, the […] cells were harvested and washed 2× with phosphate-buffered saline solution. The cells were resuspended in 25 mM Tris HCl buffer, pH 7.4, with 2% Triton X-100 and broken up by sonication on ice.
The homogenate and the cell supernatant were assayed for GlcNAc-α1,3-fucosyl transferase. Blind samples were carried out with recombinant baculovirus which codes for the tobacco-GlcNAc-transferase I (Strasser et al., 1999, Glycobiology, in the process of printing). […]

[3] = substrate: C[C@@H]1O[C@H](OP(=O)(O)OP(=O)(O)OC[C@H]2O[C@@H](n3cnc4c(=O)[nH]c(N)nc43)[C@H](O)[C@@H]2O)[C@@H](O)[C@H](O)[C@@H]1O; experiment: Assay for GlcNAc-α1,3-fucosyl transferase activity (GnGn peptide and GDP-L-[U-14C]-fucose); conditions: other: acceptor or donor substrate, unit inferred; pH 7.4; 27.0 °C
[4] = additive conc. 10 mM, recombinant transferase

[Ca+2].[Cl-].[Cl-] [CaCl2]
Relative Activity (Acceptor: GnGn-peptide) ([1]; additive conc. 10 mM, […]): 82%

[Cl][Cd][Cl] [CdCl2]
Relative Activity (Acceptor: GnGn-peptide) ([1]; additive conc. 10 mM, […]): 44%

[Cl-].[Cl-].[Co+2] [CoCl2]
Relative Activity (Acceptor: GnGn-peptide) [1]: 35%

[Cl][Cu][Cl] [CuCl2]
Relative Activity (Acceptor: GnGn-peptide) [1, 4]: 3%

O=C(O)CN(CCN(CC(=O)O)CC(=O)O)CC(=O)O [EDTA]
Relative Activity (Acceptor: GnGn-peptide) [1, 4]: 18%

CC(=O)N[C@H]1C(O)O[C@H](CO)[C@@H](O[C@@H]2O[C@H](CO)[C@H](O)[C@H](O)[C@H]2O)[C@@H]1O (stereo partly shown) [Galβ-4GlcNAc]
Rel. Activity ([1]; recombinant transferase): 0%

[Cl-].[Cl-].[Mg+2] [MgCl2]
Relative Activity (Acceptor: GnGn-peptide) [1, 4]: 52%

[Cl][Mn][Cl] [MnCl2]
Relative Activity (Acceptor: GnGn-peptide) ([1]; additive conc. 10 mM, […]): 100%
effect of addition of bivalent cations on activity of the recombinant transferase ([1]; result in words): enhances the activity

[Cl][Ni][Cl] [NiCl2]
Relative Activity (Acceptor: GnGn-peptide) ([1]; additive conc. 10 mM, […]): 24%

[Cl-].[Cl-].[Zn+2] [ZnCl2]
Relative Activity (Acceptor: GnGn-peptide) [1, 4]: 0.6%

Galβ1-3GlcNAc
Rel. Activity ([1]; recombinant transferase): 0%

Galβ1-3GlcNAcβ1-3Galβ1-4Glc
Rel. Activity ([1]; recombinant transferase): 0%

GlcNAcβ1-2Manα1-3(GlcNAcβ1-2Manα1-6)Manβ1-4GlcNAcβ1-4(Fucα1-6)GlcNAcβ1-Asn [GnGnF^6-peptide]
Km [1]: 130 µM
Rel. Activity ([1]; recombinant transferase): 87%

GlcNAcβ1-2Manα1-3(GlcNAβ1-2Manα1-6)Manβ1-4GlcNAcβ1-4GlcNAcβ1-Asn [GnGn-peptide]
Km [1]: 190 µM
Rel. Activity ([1]; recombinant transferase): 100%

GlcNAcβ1-2Manα1-3[Manα1-3(Manα1-6)Manα1-6]Manβ1-4GlcNAcβ1-4GlcNAcβ1-Asn [M5Gn-Asn]
Km [1]: 230 µM
Rel. Activity ([1]; recombinant transferase): 71%

B1: recombinant GlcNAc-α1,3-fucosyl transferase (Vigna radiata var. radiata) (protein)
chain: MMGLLTNLRGSRTDGAQQDSLPVLAPGGNPKRKWSNLMPLVVALVVIAEIAFLGRLDMAKNAAMVDSLADFFYRSRAVVEGDDLGLGLVASDRNSESYSCEEWLEREDAVTYSRGFSKEPIFVSGADQEWKSCSVGCKFGFSGDRKPDAAFGLPQPSGTASILRSMESAEYYAENNIAMARRRGYNIVMTTSLSSDVPVGYFSWAEYDMMAPVQPKTEAALAAAFISNCGARNFRLQALEALEKSNIKIDSYGGCHRNRDGRVNKVEALKHYKFSLAFENSNEEDYVTEKFFQSLVAGTVPVVVGAPNIQDFAPSPGSILHIKEIEDVESVAKTMRYLAENPEAYNQSLRWKYEGPSDSFKALVDMAAVHSSCRLCIHLATVSREKEENNPSLKRRPCKCTRGPETVYHIYVRERGRFEMESIYLRSSNLTLNAVKAAVVLKFTSLNLVPVWKTERPEVIRGGSALKLYKIYPIGLTQRQALYTFSFKGDADFRSHLENNPCAKFEVIFV
enzyme activity of the cotransfected cells and their supernatant relative to negative controls ([2]; Sf21 insect cells, homogenate and supernatant, at best): ≤ 30 ×
increase in the GlcNAc-α1,3-fucosyl transferase coming from the recombinant baculoviruses ([2]; corrected for endogenous insect α1,6-fucosyl transferase activity): > 100 -fold
Km [3]: 110 µM
